Source: patent US9776965B2, “Pyrrolidin-2-one and piperidin-2-one derivatives as 11-beta hydroxysteroid dehydrogenase inhibitors” (Janssen Pharmaceutica N.V., priority 2004, dated 2017)

Legend:
[1] = target: T1, 11b-HSD2 (Homo sapiens, UniProt P80365); assay: Enzymatic assay, 11b-HSD2 dependent dehydrogenase activity; format: biochemical; conditions: recombinant protein, 100 nM cortisol, 45 min at 37 C; read-out: [C1] HSD2 prot Dehydro Score
T1 sequence (P80365 1-405): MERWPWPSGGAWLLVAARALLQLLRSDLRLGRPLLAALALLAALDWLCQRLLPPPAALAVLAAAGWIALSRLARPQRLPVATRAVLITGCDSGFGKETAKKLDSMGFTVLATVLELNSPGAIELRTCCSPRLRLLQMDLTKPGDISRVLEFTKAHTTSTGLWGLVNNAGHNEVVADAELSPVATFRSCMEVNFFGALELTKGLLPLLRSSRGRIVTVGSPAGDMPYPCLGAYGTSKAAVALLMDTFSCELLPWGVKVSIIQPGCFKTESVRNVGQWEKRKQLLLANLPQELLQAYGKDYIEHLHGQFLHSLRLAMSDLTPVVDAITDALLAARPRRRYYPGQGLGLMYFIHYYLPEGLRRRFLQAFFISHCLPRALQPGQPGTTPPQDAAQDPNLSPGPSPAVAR
Description: The effects on the 11b-HSD2 dependent dehydrogenase activity was studied in a reaction mixture containing 0.1M sodium phosphate buffer pH 7.5, 300 μM NAD, 100 nM cortisol (of which 2 nM is 3H-radio labelled), 1 μl drug and/or solvent and 2.5 μg recombinant protein in a final volume of 100 μl.
All incubations were performed for 45 min at 37 C in a water bath. The reaction was stopped by adding 100 μl acetonitrile containing 20 μg corticosterone as internal standard. After centrifugation, the product formation was analysed in the supernatant by HPLC on a Hypersyl BDS-C18 column using 0.05 mM ammonium acetate/methanol (50/50) as solvent. In all of the aforementioned assays, the drugs to be tested were taken from a stock solution and tested at a final concentration ranging from […] to 3.10^−9M. From the thus obtained dose response curves, the pIC50 value was calculated and scored as follows; Score 1=pIC50 value<5, Score 2=pIC50 value in the range of 5 to 6, Score 3=pIC50 value>6. (in this table NT stands for Not Tested).

[2] = target: 11b-HSD1 (Homo sapiens, UniProt P28845); assay: Enzymatic assay, 11b-HSD1 dependent conversion of cortisone into cortisol (reductase activity); format: biochemical; conditions: recombinant protein, 2 μM cortisone, 45 min at 37 C; read-out: [C1] HSD1-prot Reduct Score
Sequence of 11b-HSD1 (Homo sapiens, UniProt P28845) (P28845 whole entry): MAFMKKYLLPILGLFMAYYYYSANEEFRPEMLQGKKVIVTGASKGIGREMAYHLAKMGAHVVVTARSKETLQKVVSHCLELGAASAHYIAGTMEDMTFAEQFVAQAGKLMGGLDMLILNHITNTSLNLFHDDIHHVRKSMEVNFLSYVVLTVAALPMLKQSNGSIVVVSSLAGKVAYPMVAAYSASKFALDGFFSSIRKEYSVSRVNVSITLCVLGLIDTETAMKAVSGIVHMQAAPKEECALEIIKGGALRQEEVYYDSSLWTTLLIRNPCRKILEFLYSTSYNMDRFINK
In short: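 Recombinant human 11b-HSD1 (11 µg) with 2 µM cortisone and 180 µM NADPH in 30 mM Tris-HCl pH 7.2, 1 mM EDTA, incubated 45 min at 37 °C. Cortisol formation was measured by HPLC with a corticosterone internal standard. Compounds were tested from 10^−5 M to 3.10^−9 M, and pIC50 was scored as 1 (<5), 2 (5–6) or 3 (>6).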

[3] = target: T1, 11b-HSD2; assay: Cellular assay, 11b-HSD2 activity in HepG2 cells; format: cell-based; set-up: endogenous in cells; host or cells: HepG2 (ATCC HB-8065); conditions: 4 hour pre-incubation, read-out: [C2] HSD2 cellular HepG2 Score
Description: The effects on 11b-HSD2 activity was studied in HepG2 and LCC-PK1-cells HepG2-cells (ATCC HB-8065) were seeded in 12 well plates at a density of 100,000 cells/ml and grown at 37 C in a humidified 5% CO2 atmosphere in MEM-Rega-3 medium supplemented with 10% heat inactivated foetal calf serum, 2 mM L-glutamine and sodium bicarbonate). Medium was refreshed twice a week.
Following a 4 hour pre-incubation with test compound, 0.5 μCi ^3H-cortisol or corticosterone, was added to the cultures. One hour later, the medium was extracted on Extrelut^3-columns with 15 ml diethyl ether and the extract was analysed by HPLC as described above.
As for the enzymatic assays, the compounds to be tested were taken from a stock solution and tested at a final concentration ranging from […] to 3.10^−9M. From the thus obtained dose response curves, the pIC50 value was calculated and scored as follows; Score 1=pIC50 value<5, Score 2=pIC50 value in the range of 5 to 6, Score 3=pIC50 value>6. Some of the thus obtained results are summarized in the table below (in this table NT stands for Not Tested).

[4] = target: T2, 11b-HSD1 (Mus musculus, UniProt P50172); assay: Cellular assay, 11b-HSD1 activity in differentiated 3T3-L1 cells; format: cell-based; conditions: 4 hour pre-incubation, read-out: [C2] HSD1 cellular 3T3-L1 Score
T2 construct: Fibroblasts were differentiated into adipocytes; endogenous in cells; host or cells: differentiated 3T3-L1 cells (ATCC-CL-173)
T2 sequence (P50172 whole entry): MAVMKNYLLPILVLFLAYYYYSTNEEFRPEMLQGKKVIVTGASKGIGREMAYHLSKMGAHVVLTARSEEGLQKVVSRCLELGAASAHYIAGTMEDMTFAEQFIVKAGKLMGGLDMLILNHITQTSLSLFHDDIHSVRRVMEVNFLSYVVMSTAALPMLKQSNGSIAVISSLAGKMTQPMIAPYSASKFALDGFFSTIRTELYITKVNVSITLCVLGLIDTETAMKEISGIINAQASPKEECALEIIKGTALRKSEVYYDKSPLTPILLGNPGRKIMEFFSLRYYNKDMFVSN
In short: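 Differentiated mouse 3T3-L1 adipocytes pre-incubated 4 hours with compound (final 3.10^−9 to 10^−5 M), then 0.5 μCi ³H-cortisone or dehydrocorticosterone added for one hour. Medium extracted with diethyl ether and steroids resolved by HPLC; pIC50 from dose-response curves, reported as scores.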

| SMILES | IC50 [1] | IC50 [2] | IC50 [3] | IC50 [4] | melting point |
| --- | --- | --- | --- | --- | --- |
| CC[C@H](c1ccccc1)N1CC[C@@H](Cc2c(Cl)cccc2Cl)C1=O [Compound 97] | 1 to 10 µM | < 1 µM | > 10 µM | > 10 µM | – |
| C[C@@H](c1ccccc1)N1CC[C@H](Cc2c(Cl)cccc2Cl)C1=O [Compound 13] | > 10 µM | < 1 µM | > 10 µM | < 1 µM | – |
| COc1ccccc1C[C@H]1CCN([C@@H](C)c2ccccc2)C1=O [Compound 7] | > 10 µM | 1 to 10 µM | > 10 µM | < 1 µM | – |
| Cc1ccccc1CC1CCN(CCc2ccccc2)C1=O (stereo not shown) [Compound 28] | > 10 µM | > 10 µM | > 10 µM | < 1 µM | – |
| C[C@@H](c1ccccc1)N1CC[C@@H](Cc2c(Cl)cccc2Cl)C1=O [Compound 14] | > 10 µM | < 1 µM | > 10 µM | < 1 µM | 75 to 76 °C |
| Cc1ccc(CC2CCN(CCc3ccccc3)C2=O)cc1 (stereo not shown) [Compound 35] | > 10 µM | > 10 µM | > 10 µM | < 1 µM | – |
| C[C@@H](c1ccccc1)N1CC[C@@H](Cc2ccccc2Cl)C1=O [Compound 10] | > 10 µM | < 1 µM | > 10 µM | < 1 µM | – |
| O=C1C(Cc2cccc(Cl)c2Cl)CCN1CCc1ccccc1 (stereo not shown) [Compound 31] | > 10 µM | 1 to 10 µM | > 10 µM | < 1 µM | – |

Other lines, results leading:

| IC50 [1] | IC50 [2] | IC50 [3] | IC50 [4] | melting point | SMILES |
| --- | --- | --- | --- | --- | --- |
| > 10 µM | 1 to 10 µM | > 10 µM | < 1 µM | – | C[C@@H](c1ccccc1)N1CC[C@H](Cc2ccccc2Cl)C1=O [Compound 9] |
| > 10 µM | > 10 µM | > 10 µM | < 1 µM | – | COc1ccc(C[C@H]2CCN([C@H](C)c3ccccc3)C2=O)cc1 [Compound 65] |
| > 10 µM | 1 to 10 µM | > 10 µM | < 1 µM | – | O=C1C(Cc2ccccc2Cl)CCN1Cc1ccccc1 (stereo not shown) [Compound 57] |
| > 10 µM | 1 to 10 µM | > 10 µM | < 1 µM | – | C[C@H](c1ccccc1)N1CC[C@H](Cc2ccccc2Cl)C1=O [Compound 41] |
